According to patent US6469001B1, “IL-5 inhibiting 6-azauracil derivatives” (priority 1998, dated 2002):

Tested on: IL-5 production in human blood
Assay: in vitro inhibition of IL-5 production in human blood (whole blood stimulated with phytohemagglutinin, IL-5 by ELISA)
Assay type: cell-based
Details: test dose 1×10^−6 M, phytohemagglutinin HA17 stimulation, 48 hours, read-out: % inh. (percentage inhibition of IL-5 production)
Description: in vitro Inhibition of IL-5 Production in Human Blood
Human Whole Blood Stimulation
Peripheral blood from healthy male donors was drawn into heparinized syringes (12.5 U heparin/ml). Blood samples were three-fold diluted in RMPI 1640 medium (Life Technologies, Belgium) supplemented with 2 mM L-glutamine, 100 U/ml penicillin and […] streptomycin, and […] fractions were distributed in 24-well multidisc plates. Blood samples were preincubated (60 minutes at 37° C.) in a humidified 6% CO2-atmosphere with 100 ml of drug solvent (final concentration 0.02% dimethylsulfoxide in RPMI 1640) or with 100 ml of an appropriate dose of test compound before being stimulated by the addition of […] of phytohemagglutinin HA17 (Murex, UK) at a final concentration of […]. After 48 hours, cell-free supernatant fluids were collected by centrifugation and stored at −70° C. until tested for the presence of IL-5.
IL-5 measurements were conducted as described in Van Wauwe et al. (1996, Inflamm Res, 45, 357-363) on page 358 using ELISA.
Table 1 lists the percentage inhibition of IL-5 production (column “% inh”) at a test dose of 1×10^−6 M for the compounds of the present invention.

**Q.** With Cc1sc(C2(c3ccc(S(C)(=O)=O)cc3)CCc3cc(-n4ncc(=O)[nH]c4=O)ccc32)nc1-c1ccccc1 (centres unmarked) [Compound 7] as the molecule, how does the inhibition at 1 µM read?
**A.** The inhibition at 1 µM was 39%.

**Q.** For CS(=O)(=O)c1ccc(C2(C(N)=S)CCc3cc(-n4ncc(=O)[nH]c4=O)ccc32)cc1 (centres unmarked) [Compound 6], which inhibition at 1 µM is on record?
**A.** Its inhibition at 1 µM is 6%.
